Measured values reported in patent US10221163B2 (priority 2015, dated 2019).
Like-named read-outs stand apart in the source and are kept apart here.

Tests used:
[1] = target: VIM-1 (Pseudomonas aeruginosa (strain ATCC 15692 / DSM 22644 / CIP 104116 / JCM 14847 / LMG 12228 / 1C / PRS 101 / PAO1), UniProt A0A0F7KYQ8); experiment: biochemical; conditions: CCF2-FA substrate, 30 pM enzyme, 2 hours at 25° C.
Outline: (§1)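 Two-hour, 25° C incubation of enzyme with inhibitor and CCF2-FA (7-hydroxycoumarin–cephalosporin–fluorescein). Fluorescence read-out; IC50 via 4-parameter fit.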

[2] = test system: Pseudomonas aeruginosa efflux− (MB9799), IMP-1; type: cell-based; conditions: C, D serine β-lactamase inhibitor closely related to relebactam; for Concentration of metallo-β-lactamase inhibitor which restores susceptibility of efflux − (MB9799) strain to imipenem: imipenem at 2 μg/mL, in the presence of a class A; for P. aeruginosa expressing IMP-1, efflux − (MB9799) MITC95: concentration restoring susceptibility to imipenem at 2 μg/mL in the presence of a class A
Outline: (§2)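 PAO1 pair, broth microdilution; fixed β-lactam (imipenem/ceftazidime) at ~CLSI breakpoint + fixed class A/C BLI for AmpC; serial MBLi titration; endpoint = MBLi conc. restoring susceptibility; MB9798:MB9799 ratio = efflux liability.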

[3] = test system: Escherichia coli expressing NDM-1 (CLB30005, CLB30016); type: cell-based; conditions: with imipenem 1 μg/ml; for Escherichia coli MITC95: NDM-1 strain
Outline: (§3)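 Imipenem 1 μg/ml + inhibitor; MBL-expressing clinical strains in 1.1×CAMHB, inoculum from saline suspension diluted 1:100; 35° C, 22–24 h; absorbance read-out.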

[4] = test system: Klebsiella pneumoniae expressing VIM-1 (IHMA599644); type: cell-based; conditions: for Klebsiella pneumoniae MITC95: VIM-1 strain IHMA599644, with imipenem 1 μg/ml; for Klebsiella pneumoniae expressing VIM-1 (IHMA599644) MITC95: with imipenem 1 μg/ml
Outline: as §3

[5] = test system: Serratia marcescens expressing IMP-1 (CL5741); type: cell-based; conditions: for Serratia marcescens MITC95: IMP-1 strain CL5741, with imipenem 1 μg/ml; for Serratia marcescens expressing IMP-1 (CL5741) MITC95: with imipenem 1 μg/ml
Outline: as §3

[6] = target: NDM-1 (Klebsiella pneumoniae, UniProt C7C422); experiment: biochemical; type: biochemical; conditions: fluorescence assay, CCF2-FA substrate, 1 pM enzyme, 2 hours at 25° C.; read-out: NDM-1 IC50
Chain of NDM-1 (C7C422 whole entry, looked up, species assumed): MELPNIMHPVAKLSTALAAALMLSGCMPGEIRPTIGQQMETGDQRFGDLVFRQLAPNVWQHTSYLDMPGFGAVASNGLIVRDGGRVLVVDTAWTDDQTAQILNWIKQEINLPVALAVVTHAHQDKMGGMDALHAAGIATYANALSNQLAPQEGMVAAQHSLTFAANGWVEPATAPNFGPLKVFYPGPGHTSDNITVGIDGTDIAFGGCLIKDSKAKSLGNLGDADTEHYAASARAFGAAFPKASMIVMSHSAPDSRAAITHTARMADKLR
Outline: as §1

[7] = target: IMP-1 (Serratia marcescens, UniProt P52699); experiment: biochemical; type: biochemical; conditions: fluorescence assay, CCF2-FA substrate, 2 pM enzyme, 2 hours at 25° C.; read-out: IMP-1 IC50
Chain of IMP-1 (P52699 whole entry, looked up, species assumed): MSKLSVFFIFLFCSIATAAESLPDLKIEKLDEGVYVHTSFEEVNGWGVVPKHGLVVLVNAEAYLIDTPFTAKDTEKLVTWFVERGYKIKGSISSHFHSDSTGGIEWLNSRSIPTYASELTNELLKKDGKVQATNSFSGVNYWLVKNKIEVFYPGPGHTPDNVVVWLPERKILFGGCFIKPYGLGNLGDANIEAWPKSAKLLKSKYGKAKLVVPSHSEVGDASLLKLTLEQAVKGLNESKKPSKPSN
Outline: as §1

[8] = test system: Pseudomonas aeruginosa MB9798 vs MB9799
Outline: as §2

[9] = test system: Pseudomonas aeruginosa efflux+ (MB9798), IMP-1; type: cell-based; design: Concentration of metallo-β-lactamase inhibitor which restores susceptibility of efflux + (MB9798) strain to imipenem: unit not given here; conditions: C, D serine β-lactamase inhibitor closely related to relebactam; for Concentration of metallo-β-lactamase inhibitor which restores susceptibility of efflux + (MB9798) strain to imipenem: imipenem at 2 μg/mL, in the presence of a class A; for P. aeruginosa expressing IMP-1, efflux + (MB9798) MITC95: concentration restoring susceptibility to imipenem at 2 μg/mL in the presence of a class A
Outline: as §2

[10] = fluorescence assay, read-out: VIM-1 IC50
[11] = 95% inhibition of bacterial growth
[12] = fold difference between efflux+ (MB9798) and efflux− (MB9799) strains, imipenem at 2 μg/mL
[13] = ratio MITC95 PA_9798/MITC95 PA_9799

SMILES | IC50 [1, 10] [nM] | Concentration of metallo-β-lactamase inhibitor which restores susceptibility of efflux − (MB9799) strain to imipenem [2] | Escherichia coli MITC95 [3, 11] [µM] | Klebsiella pneumoniae MITC95 [4, 11] [µM] | Serratia marcescens MITC95 [5, 11] [µM] | IC50 [6] [nM] | IC50 [7] [nM] | Efflux ratio [8, 12] | Concentration of metallo-β-lactamase inhibitor which restores susceptibility of efflux + (MB9798) strain to imipenem [9] | P. aeruginosa expressing IMP-1, efflux − (MB9799) MITC95 [2] [µM] | Escherichia coli expressing NDM-1 (CLB30016) MITC95 [3, 11] [µM] | Klebsiella pneumoniae expressing VIM-1 (IHMA599644) MITC95 [4, 11] [µM] | Serratia marcescens expressing IMP-1 (CL5741) MITC95 [5, 11] [µM] | Efflux ratio [8, 13] | P. aeruginosa expressing IMP-1, efflux + (MB9798) MITC95 [9] [µM] | Escherichia coli MITC95 ([3]; 95% inhibition of growth) [µM] | Klebsiella pneumoniae MITC95 ([4]; 95% inhibition of growth) [µM] | Serratia marcescens MITC95 ([5]; 95% inhibition of growth) [µM] | IC50 ([1]; VIM-1 IC50, fluorescence assay) [nM]
C[C@@H](CCN)NS(=O)(=O)c1ccc(-c2ccc(N)nc2)c(-c2nn[nH]n2)c1S(N)(=O)=O [Example 499, (S)-N1-(4-aminobutan-2-yl)-4-(6-aminopyridin-3-yl)-3-(1H-tetrazol-5-yl)benzene-1,2-disulfonamide] | 0.291 | 0.7813 | 0.7813 | 3.125 | 1.563 | 0.555 | 1.02 | 1.00 | 0.7813 | – | – | – | – | – | – | – | – | – | –
Nc1nc2c(-c3ccc(S(=O)(=O)N[C@@H]4CCCNC4)c(S(N)(=O)=O)c3-c3nnn[nH]3)cccc2[nH]1 [Example 178, (R)-4-(2-amino-1H-benzo[d]imidazol-4-yl)-N^1-(piperidin-3-yl)-3-(1H-tetrazol-5-yl)benzene-1,2-disulfonamide] | 0.266 | – | – | – | – | 0.064 | 0.87 | – | – | 1.563 | 1.563 | 3.125 | 1.563 | 1.00 | 1.563 | – | – | – | –
Nc1cccc(-c2ccc(S(=O)(=O)N[C@@H]3CCNC3)c(S(N)(=O)=O)c2-c2nn[nH]n2)n1 [Example 277, (R)-4-(6-aminopyridin-2-yl)-N1-(pyrrolidin-3-yl)-3-(2H-tetrazol-5-yl)benzene-1,2-disulfonamide] | 0.129 | – | – | – | – | 0.148 | 1.27 | – | – | 0.7813 | – | – | – | 1.00 | 0.7813 | 0.7813 | 1.563 | 1.563 | –
Nc1nc2c(-c3ccc(S(=O)(=O)NC4CNC[C@H]4N)c(S(N)(=O)=O)c3-c3nn[nH]n3)cccc2[nH]1 (stereo in doubt) [Example 322, 4-(2-Amino-1H-benzo[d]imidazol-4-yl)-N1-((3S,4R)-4-aminopyrrolidin-3-yl)-3-(2H-tetrazol-5-yl)benzene-1,2-disulfonamide] | – | – | – | – | – | 0.0536 | 0.738 | – | – | 0.7813 | – | – | – | 0.83 | 0.651 | 0.5208 | 1.302 | 1.042 | 0.182
Nc1nc2c(-c3ccc(S(=O)(=O)N4CC(F)(F)C4)c(S(N)(=O)=O)c3-c3nnn[nH]3)cccc2s1 [Example 42, 3-(2-amino-1,3-benzothiazol-4-yl)-6-[(3,3-difluoroazetidin-1-yl)sulfonyl]-2-(1H-tetrazol-5-yl)benzenesulfonamide] | – | – | – | – | – | 0.697 | 0.7 | – | – | 1.563 | 12.5 | 12.5 | 3.125 | 15.99 | 25 | – | – | – | 0.669
NCCNS(=O)(=O)c1ccc(-c2cccc3c2CCCN3)c(-c2nn[nH]n2)c1S(N)(=O)=O [Example 455, N1-(2-Aminoethyl)-4-(1,2,3,4-tetrahydroquinolin-5-yl)-3-(2H-tetrazol-5-yl)benzene-1,2-disulfonamide] | 0.163 | 1.563 | – | – | – | 0.216 | 0.53 | 8.00 | 12.5 | – | – | – | – | – | – | 1.563 | 3.125 | 3.125 | –
